# Measured values from paper PMC6394474, “Evaluation of the effects of formulation, food, or a proton-pump inhibitor on the pharmacokinetics of glasdegib (PF-04449913) in healthy volunteers: a randomized phase I study” (Cancer Chemotherapy and Pharmacology, 2018).
# Entries after “also recorded” stand apart in the source; their conditions may differ.
# Key:
# [1] = Phase I single-dose plasma pharmacokinetics of glasdegib tablet formulations in healthy volunteers (HPLC-MS/MS, noncompartmental analysis); type: in vivo, human
# Excerpt: This was a Phase I, randomized, open-label, three-period, four-sequence, four-treatment study in healthy volunteers. Subjects were randomized to one of four treatment sequences (Fig. 1). All subjects received three treatments with a washout period of at least 7 days between each administration period. The duration of each administration period was 6 days with the exception of PPI treatment, which was 12 days (including 6-day follow-up after glasdegib administration).
# No food was allowed for at least 4 h after glasdegib dosing.
# Following a 10-h fast, subjects consumed a recommended high-fat (~ 50% of total caloric content of the meal), high-calorie meal (~ 800 to 1000 calories with 150, 250, and 500–600 calories from protein, carbohydrate, and fat, respectively).
# Following a 7-day washout period, rabeprazole 40 mg was administered daily for 7 days. On the day of PK sample collection (day 7 of rabeprazole administration), both rabeprazole and glasdegib were administered in the fasted state. Rabeprazole was administered 4 h before glasdegib. […]
# The primary PK endpoints were AUCinf and Cmax of glasdegib. Additional PK endpoints were AUC from time 0 to the last quantifiable concentration (AUClast), time for Cmax (Tmax), plasma elimination half-life (t½), apparent oral clearance (CL/F), and apparent volume of distribution following oral dose (Vz/F).
# Glasdegib plasma concentrations were determined at Covance Bioanalytical Services (Shanghai, China) using a validated, sensitive, and specific high-performance liquid chromatography–tandem mass spectrometric (HPLC–MS/MS) method. […]
# Calibration curves were linear over the range of 3–3000 ng/mL for glasdegib in plasma, using a weighted (1/concentration^2) linear regression. The lower limit of quantification (LLOQ) of glasdegib was 3 ng/mL.
# Glasdegib PK parameters were calculated using noncompartmental analysis of plasma concentration–time data. […] AUClast was determined using the linear/log trapezoidal method. […] The t½ was calculated as loge(2)/Kel, CL/F was calculated as dose/AUCinf, and Vz/F was calculated as dose/(AUCinf × Kel). […]
# [2] = Safety and tolerability: treatment-emergent adverse event monitoring in healthy subjects; type: in vivo, human
# Method: Safety and tolerability of glasdegib were assessed by adverse event (AE) monitoring and changes in clinical laboratory results, ECGs, and physical examination findings. AEs were graded according to the Medical Dictionary for Regulatory Activities version 20.0.
# [3] = parameters: method as in PMID 24900436; details: unpublished; cited from earlier work
# [4] = weakly basic drug; higher solubility at acidic pH; cited from earlier work
# [5] = parameters: method as in PMID 29086063; details: early maleate-salt tablet formulations, in the presence of PPIs, single 100-mg oral dose; cited from earlier work
# Hedgehog pathway = system: Hedgehog pathway; parameters: method as in PMID 28556364; details: 50 mg QD dose; skin; cited from earlier work
# [6] = in the presence of a PPI (rabeprazole) vs fasted alone
smiles,measurement,setting,value
CN1CC[C@@H](NC(=O)Nc2ccc(C#N)cc2)C[C@@H]1c1nc2ccccc2[nH]1 [glasdegib],decrease in geometric mean AUCinf,"[1]; high-fat, high-calorie meal vs fasted, single 100 mg oral dose",16%
same,change in geometric mean AUCinf,[1]; [6],did not result in a change
same,decrease in geometric mean Cmax,[1]; [6],~ 20%
same,"deaths, serious AEs, severe AEs, dose reductions, discontinuations due to AEs",[2]; all treatment arms,"no deaths, serious AEs, severe AEs, dose reductions, or permanent/temporary discontinuations due to AEs"
same,TEAEs reported across all treatment arms,"[2]; human, in vivo",17
same,"gastrointestinal disorders, share of all TEAEs","[2]; human, in vivo",35%
same,severity of observed TEAEs,"[2]; human, in vivo",mild
same,subjects with TEAEs across all treatment arms,"[2]; human, in vivo",12
same,Biopharmaceutical Classification System class,[3],II or IV
same,solubility (pH-dependent),[4],drops substantially at pH ≥ 6.3; also recorded: decreasing solubility as pH increases
same,decrease in Cmax,[5],13%
same,increase in AUCinf,[5],12%
same,downregulation of the Hedgehog pathway,Hedgehog pathway,consistent downregulation
